Measured values taken from patent US9770435B2 (EUROSCREEN SA, priority 2013, dated 2017).

System: TNFα secretion from LPS-stimulated PBMC
Experiment: Cytokines release from peripheral blood mononuclear cell assay: TNFα
Assay type: cell-based
Details: Homo sapiens, 3 h
Method: Data are presented as percentage of LPS response.
Data are presented as mean±SEM and the final concentration of each tested compound in the assay is 10 μM. Statistical analysis was performed by 2-way ANOVA followed by Dunnet's comparison to vehicle group, ****p<0.0001.
Cytokines Release from Peripheral Blood Mononuclear Cell Assay
Peripheral blood mononuclear cells (PBMC) are purified from heparinised fresh blood sample on a Lymphoprep gradient. PBMC are plated in 96-well assay plate (2×10^5 cells/well) and stimulated with or without LPS (100 ng/ml) and increasing concentration of compounds of the invention for 3 hours at 37° C. Cell supernatants are recovered after centrifugation and human soluble TNFα, IL-6 or other cytokines, are quantified using ELISA assay (R&D system) according manufacturer's recommendation.
Additional results with compounds of the invention are set out in tabulated form (Table 5).

Compound | IC50 [µM]
COc1ncc(-c2ccc(C(=O)N3[C@@H](c4ccccc4Cl)CC[C@H]3C(=O)O)cc2)c(OC)n1 [Compound 161, (2S,5R)-5-(2-chlorophenyl)-1-(4-(2,4-dimethoxypyrimidin-5-yl)benzoyl)pyrrolidine-2-carboxylic acid] | 11.8
COc1ncc(-c2ccc(C(=O)N3[C@@H](c4ccccc4Cl)CC[C@H]3C(=O)O)cc2Cl)c(OC)n1 [Compound 325, (2S,5R)-1-(3-chloro-4-(2,4-dimethoxypyrimidin-5-yl)benzoyl)-5-(2-chlorophenyl)pyrrolidine-2-carboxylic acid] | 6
COc1ccc(C#N)cc1-c1ccc(C(=O)N2[C@@H](c3ccccc3Cl)CC[C@H]2C(=O)O)cc1 [Compound 345, (2S,5R)-5-(2-chlorophenyl)-1-(5′-cyano-2′-methoxy-[1,1′-biphenyl]-4-carbonyl)pyrrolidine-2-carboxylic acid] | 0.99
COc1cc(C#N)c(-c2ccc(C(=O)N3[C@@H](c4ccccc4Cl)CC[C@H]3C(=O)O)cc2)cc1OC [Compound 361, (2S,5R)-5-(2-chlorophenyl)-1-(2′-cyano-4′,5′-dimethoxy-[1,1′-biphenyl]-4-carbonyl)pyrrolidine-2-carboxylic acid] | 5.19
N#Cc1ccccc1-c1ccc(C(=O)N2[C@@H](c3ccccc3Cl)CC[C@H]2C(=O)O)cc1F [Compound 390, (2S,5R)-5-(2-chlorophenyl)-1-(2′-cyano-2-fluoro-[1,1′-biphenyl]-4-carbonyl)pyrrolidine-2-carboxylic acid] | 5.52
Cc1ccc(C#N)cc1-c1ccc(C(=O)N2[C@@H](c3cccc(F)c3F)CC[C@H]2C(=O)O)cc1 [Compound 421, (2S,5R)-1-(5′-cyano-2′-methyl-[1,1′-biphenyl]-4-carbonyl)-5-(2,3-difluorophenyl)pyrrolidine-2-carboxylic acid] | 2.93
